How the values were obtained:
[1] = Measurement of glass transition temperature (Tg), scanning calorimetry, JIS K 7121, SII DSC6220; format: physicochemical; conditions: for heat resistance: result in words, from Tg
Protocol: The glass transition temperature may be measured by a method defined in JIS K 7121 or ISO 3146 corresponding thereto. In the following examples, the glass transition temperature was measured by a scanning calorimetric measurement method.
In an argon atmosphere, 2.20 g (5.52 mmol) of Intermediate a, 3.30 g (4.97 mmol) of Intermediate b, 0.078 g (0.11 mmol) of dichlorobis(triphenylphosphine)dipalladium, 55 mL of dioxane, and 28 mL of a 0.5 N sodium carbonate aqueous solution were added to a reaction vessel, and the mixture was stirred at a temperature of 90° C. for 8 hours. After the reaction was completed, the resultant mixture was cooled to room temperature and filtered by using celite. An organic layer obtained therefrom was concentrated and purified by column chromatography, thereby completing the preparation of Compound 1-7 (synthesized amount: 2.97 g, yield: 69.9%) (the structure thereof was identified by LC-MS). A measurement of a glass transition temperature (Tg) was performed based on JIS K 7121 by using SII DSC6220 (manufactured by Seiko Instruments Inc.).
(§1) The glass transition temperature (Tg) and solubility of Compounds 1-5, 1-23, 1-24, and 1-79 were measured. In measuring the solubility, xylene was used as a solvent. The glass transition temperature (Tg) and solubility of each compound is written under each compound number.

[2] = Measurement of solubility in xylene; format: physicochemical; conditions: for solubility: result in words; for solubility / Solubility (xylene): solvent xylene
Protocol: as §1

heat resistance [1]	solubility [2]	Solubility (xylene) [2]	soluble in a hydrocarbon-based solvent ([2]; toluene or xylene)	Tg (glass transition temperature) ([1]; JIS K 7121, SII DSC6220)	Compound
excellent	excellent				c1ccc(-c2cc(-c3ccccc3)cc(-c3cccc(-c4cc(-c5ccccc5)nc(-c5cccc(-c6cccc7c6c6cc(-c8ccccc8)ccc6n7-c6ccccc6)c5)n4)c3)c2)cc1 [Compound 1-5]
excellent	excellent				c1ccc(-c2cc(-c3ccccc3)cc(-c3cccc(-c4nc(-c5ccccc5)nc(-c5cccc(-c6ccc7c(c6)c6cc(-c8ccccc8)ccc6n7-c6ccccc6)c5)n4)c3)c2)cc1 [Compound 1-79]
		> 10 wt %	soluble		c1ccc(-c2cc(-c3ccccc3)cc(-c3cccc(-c4nc(-c5ccccc5)nc(-c5cccc(-c6cccc7c6c6cc(-c8ccccc8)ccc6n7-c6ccccc6)c5)n4)c3)c2)cc1 [Compound 1-7]
		> 10 wt %		156.6 °C	c1ccc(-c2cc(-c3ccccc3)cc(-c3cccc(-n4c5ccccc5c5cc(-c6ccc7c(c6)c6cc(-c8ccccc8)ccc6n7-c6ccccc6)ccc54)c3)c2)cc1 [Compound 6-5]

Reference: patent US10597403B2, “Condensed cyclic compound, composition including the condensed cyclic compound, organic light-emitting device including the condensed cyclic compound, and method of manufacturing the organic light-emitting device” (SAMSUNG ELECTRONICS CO., LTD., priority 2015, dated 2020)
